Test results: patent US6984649B1, “Pyridine derivatives” (Bayer Aktiengesellschaft, priority 2000, dated 2006)
Counter-ions that a name gives are not always drawn.

target: T1, human IKK-β (Homo sapiens, UniProt O14920); test: IKK-β kinase inhibitory assay; type: biochemical; conditions: compounds as yielded by solid phase synthesis, purity about 40 to 90%, read-out: In vitro activity grade (In vitro IC50)
T1 construct: A cDNA fragment encoding human IKK-β open reading frame was generated by PCR; His tag (from pcDNA3.1/His C); made in house; host or cells: Sf21 insect cells (baculovirus); substrate made in E. coli
T1 sequence (O14920 1-756): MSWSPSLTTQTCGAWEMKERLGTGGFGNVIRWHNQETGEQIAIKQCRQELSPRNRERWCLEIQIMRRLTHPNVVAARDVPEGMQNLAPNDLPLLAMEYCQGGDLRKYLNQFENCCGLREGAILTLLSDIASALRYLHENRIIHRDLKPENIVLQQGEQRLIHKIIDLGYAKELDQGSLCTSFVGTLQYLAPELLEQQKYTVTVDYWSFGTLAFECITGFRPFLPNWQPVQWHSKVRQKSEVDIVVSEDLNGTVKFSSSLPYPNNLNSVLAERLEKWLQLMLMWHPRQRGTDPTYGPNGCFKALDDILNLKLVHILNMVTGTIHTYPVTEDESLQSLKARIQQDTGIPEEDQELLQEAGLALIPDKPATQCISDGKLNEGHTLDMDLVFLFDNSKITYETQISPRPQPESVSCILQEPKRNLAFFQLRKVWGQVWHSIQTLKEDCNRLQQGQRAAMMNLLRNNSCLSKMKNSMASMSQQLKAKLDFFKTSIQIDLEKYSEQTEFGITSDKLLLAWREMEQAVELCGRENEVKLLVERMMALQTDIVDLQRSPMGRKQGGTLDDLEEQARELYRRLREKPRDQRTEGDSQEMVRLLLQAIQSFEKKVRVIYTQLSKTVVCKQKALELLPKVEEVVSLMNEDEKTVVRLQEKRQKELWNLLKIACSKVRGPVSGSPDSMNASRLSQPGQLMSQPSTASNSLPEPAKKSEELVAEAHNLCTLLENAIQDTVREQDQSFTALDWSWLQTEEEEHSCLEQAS
Excerpt: [IKK-β Kinase Inhibitory Assay]
(1) Preparation of IKK-β Kinase Protein.
• A cDNA fragment encoding human IKK-β open reading frame was generated by PCR with the use of a pair of primers designed from the published sequence (Woronicz J D et al. (1997) Science 278, 866-869). A template was obtained from Quickclone cDNA (Clontech) using Elongase™ Amplification kit (Life Technologies). The DNA fragments generated by PCR were gel-purified and subcloned into pBluescript. The cDNA fragment cloned in pBluescript was inserted into pcDNA3.1/His C KpnI/NotI, and transferred into pVL1393 SmaI/XbaI (Pharmingen) to construct a baculovirus transfer vector. Then the vector, together with the linearized baculovirus (BaculoGold™, Pharmingen) was used to transfect Sf21 cells (Invitrogen, San Diego, Calif.). Generated recombinant baculovirus was cloned and amplified in Sf21 cells, grown in TNM-FH insect cell medium (Life Technologies, Inc.) supplemented with 10% FCS, […] Gentamycin, 0.1% Pluronic F-68 (Life Technologies, Inc.) as suspension culture (200 ml in 1 L Erlenmeyer flask; 27° C.; 130 rpm). Sf21 cells were infected with this amplified virus with a multiplicity of infection of 5 following standard protocols (Crossen R, Gruenwald S (1997) Baculovirus Expression Vector System Instruction Manual, Pharmingen Corporation) and harvested 48 hrs later. The cells were lysed to obtain the produced chimeric protein of IKK-β kinase fused by histidine (His-tagged IKK-beta). (2) The Preparation of Purified GST-IκBα Fusion Proteins • An expression vector containing the nucleotide sequence encoding fusion protein of GST with amino acid residues 1 to 54 of IκBα under the control of an IPTG-inducible promoter was constructed. The expression vector was introduced in E. coli and the transformant was cultured and lysed to obtain a GST-IκBα fusion protein. Then the resulting GST-IκBα fusion protein was purified and biotinated for kinase assay. (3) The Measurement of IKK-β Kinase Activity • The 96-well format kinase assay of IKK-β were performed to test the inhibitory activity of the compounds of the present invention. First, 5 μl of a test compound was put in the presence of 2.5% dimethyl sulfoxide (DMSO) in each well in a U-bottomed 96-well plate (Falcon). For control wells of background (BG) and total phosphorylation (TP), 5 μl of 2.5% DMSO was put. Recombinant IKK-β (final 0.6 μg/ml) and bio-GST-IκBα (1-54) (final 0.2 μM) were diluted in 25 μl of 2×kinase buffer β (40 mM Tris-HCl, pH 7.6, 40 mM MgCl2, 40 mM β-glycerophosphate, 40 mM p-nitrophenylphosphate, 2 mM EDTA, 40 mM creatine phosphate, 2 mM DTT, 2 mM Na3VO4, 0.2 mg/ml BSA and 0.8 mM phenylmethylsulfonyl fluoride) and transferred to the 96-well plate. Bio-GST-IκBα (1-54) in 25 μl of 2×kinase buffer β without IKK-β was transferred to BG wells. Then 20 μl of 12.5 μM ATP, 62.5 μCi/ml [γ-^33P] ATP (Amersham Pharmacia Biotech) was added and the resulting mixture was incubated for 2 hrs at room temperature. The kinase reactions were terminated by the addition of 150 μl of termination buffer (100 mM EDTA, 1 mg/ml BSA, 0.2 mg NaN3). One hundred and fifty μl of the sample were transferred to a streptavidin-coated, white MTP (Steffens Biotechniche Analysen GmbH #08114E14.FWD) to capture the biotinylated substrates. After 1 hr of incubation, non-bound radioactivity was eliminated by washing the wells five times with 300 μl of washing buffer including 0.9% NaCl and 0.1% (w/v) Tween-20 with the use of a MW-96 plate washer (BioTec). The bound radioactivity was determined after the addition of 170 μl MicroScint-PS scintillation cocktail (Packard) using a TopCount scintillation counter. [Syk Tyrosine Kinase Inhibitory Assay for Selectivity] (1) Preparation of Syk Protein • A cDNA fragment encoding human Syk openreading frame was cloned from total RNA of human Burkitt's lymphoma B cell lines, Raji (American Type Culture Collection), with the use of RT-PCR method.

Row | Structure (SMILES) | IC50 [nM]
1 | N#Cc1ccc(-c2ccccc2O)nc1N [Example 33-1, 2-amino-6-(2-hydroxyphenyl)nicotinonitrile] | 500 to 2000
2 | O=S1(=O)NCc2c(C3CCCNC3)cc(-c3ccccc3O)nc2N1 (centres unmarked) [Example 22-5, 2-[2,2-dioxido-5-(3-piperidinyl)-3,4-dihydro-1H-pyrido[2,3-c][1,2,6]thiadiazin-7-yl]phenol hydrochloride] | < 500
3 | O=c1[nH]c2nc(-c3ccccc3O)cc(C3CCCNC3)c2c(=O)n1-c1ccccc1 (centres unmarked) [Example 7-3, 7-(2-hydroxyphenyl)-3-phenyl-5-(3-piperidinyl)pyrido[2,3-d]pyrimidine-2,4(1H,3H)-dione hydrochloride] | 500 to 2000
4 | N#Cc1c(N2CCOCC2)cc(-c2ccccc2O)nc1N [Example 34-1, 2-amino-6-(2-hydroxyphenyl)-4-(4-morpholinyl)nicotinonitrile] | 500 to 2000
5 | O=C1Nc2nc(-c3ccccc3O)cc(C3=CCCNC3)c2CO1 [Example 18-6] | < 500
6 | O=C1Nc2nc(-c3ccccc3O)cc(C3CCCNC3)c2CO1 (centres unmarked) [Example 18-2, 7-(2-hydroxyphenyl)-5-(3-piperidinyl)-1,4-dihydro-2H-pyrido[2,3-d][1,3]oxazin-2-one hydrochloride] | < 500
7 | N#Cc1c(N2CCC(C(N)=O)CC2)cc(-c2ccccc2O)nc1N [Example 34-2, 1-[2-amino-3-cyano-6-(2-hydroxyphenyl)-4-pyridinyl]-4-piperidinecarboxamide] | 500 to 2000
8 | Nc1nc(-c2ccccc2O)cc2c1C(=O)N1CCCC2C1 (centres unmarked) [Example 8-1, 6-amino-4-(2-hydroxy-phenyl)-5,9-diaza-tricyclo[7.3.1.0^2,7]trideca-2(7),3,5-trien-8-one] | 500 to 2000
9 | CC(=O)Nc1nc(-c2c(O)cccc2OCC2CC2)cc(C2CCNCC2)c1C#N [Example 6-2, N-[3-cyano-6-[2-(cyclopropylmethoxy)-6-hydroxyphenyl]-4-(4-piperidinyl)-2-pyridinyl]acetamide hydrochloride] | < 500
10 | N#Cc1c(N2CCCC(N)C2)cc(-c2ccccc2O)nc1N (centres unmarked) [Example 34-3, 2-amino-4-(3-amino-1-piperidinyl)-6-(2-hydroxyphenyl)nicotinonitrile hydrochloride] | 500 to 2000
11 | CC1OC(=O)Nc2nc(-c3ccccc3O)cc(C3CCCNC3)c21 (centres unmarked) [Example 18-3, hydrochloride] | 500 to 2000
12 | Nc1nc(-c2ccccc2O)cc2c1CN[C@@H]2Cc1ccccc1 [Example 20-2, 2-[(1R)-4-amino-1-benzyl-2,3-dihydro-1H-pyrrolo[3,4-d]pyridin-6-yl]phenol hydrochloride] | < 500
13 | Nc1nc(-c2c(O)cccc2OCC2CC2)cc(C2CCNCC2)c1Cn1ccnc1 [Example 21-2, 2-[6-amino-5-(1H-imidazol-1-ylmethyl)-4-(4-piperidinyl)-2-pyridinyl]-3-(cyclopropylmethoxy)phenol hydrochloride] | < 500
14 | CC(=O)N1Cc2c(C3CCCNC3)cc(-c3c(O)cccc3OCC3CC3)nc2NC1=O (centres unmarked) [Example 24-1, 3-acetyl-7-[2-(cyclopropylmethoxy)-6-hydroxyphenyl]-5-(3-piperidinyl)-3,4-dihydropyrido[2,3-d]pyrimidin-2(1H)-one hydrochloride] | < 500

Now from value to compound:

Row | IC50 [nM] | Structure (SMILES)
15 | 2000 to 10000 | N#Cc1c(C2CCCNC2)cc(-c2c(N)cccc2O)nc1N (centres unmarked) [Example 1-10, 2-amino-6-(2-amino-6-hydroxyphenyl)-4-(3-piperidinyl)nicotinonitrile hydrochloride]
16 | < 500 | Nc1nc(-c2c(O)cccc2OCC2CC2)cc(C2CCCNC2)c1C(=O)O (centres unmarked) [Example 9-3, 2-amino-6-[2-(cyclopropylmethoxy)-6-hydroxyphenyl]-4-(3-piperidinyl)nicotinic acid hydrochloride]
17 | < 500 | N#Cc1c(C2CCCNC2)cc(-c2ccccc2O)nc1N (centres unmarked) [Example 1-1, 2-amino-6-(2-hydroxyphenyl)-4-(3-piperidinyl)-nicotinonitrile hydrochloride]
18 | < 500 | CC(=O)NCc1c(C2CCCNC2)cc(-c2c(O)cccc2OCC2CC2)nc1N (centres unmarked) [Example 23-1, N-{[2-amino-6-[2-(cyclopropylmethoxy)-6-hydroxyphenyl]-4-(3-piperidinyl)-3-pyridinyl]methyl}acetamide hydrochoride]
19 | < 500 | N#Cc1c(C2CCNC2)cc(-c2ccccc2O)nc1N (centres unmarked) [Example 1-2, 2-amino-6-(2-hydroxyphenyl)-4-(3-pirrolidinyl)nicotinonitrile trifluoroacetate]
20 | 500 to 2000 | CC1(c2cc(-c3ccccc3O)nc(N)c2C#N)CCCNC1 (centres unmarked) [Example 1-3, 2-amino-6-(2-hydroxyphenyl)-4-(3-methylpiperidin-3-yl)-nicotinonitrile hydrochloride]
21 | 2000 to 10000 | CC(=O)Nc1cccc(O)c1-c1cc(C2CCCNC2)c(C#N)c(N)n1 (centres unmarked) [Example 1-12, N-{2-[6-amino-5-cyano-4-(3-piperidinyl)-2-pyridinyl]-3-hydroxyphenyl}acetamide hydrochloride]
22 | < 500 | CC(=O)Nc1nc(-c2ccccc2O)cc(C2CCCNC2)c1C#N (centres unmarked) [Example 6-1, N-[3-cyano-6-(2-hydroxyphenyl)-4-(3-piperidinyl)-2-pyridinyl]acetamide hydrochloride]
23 | < 500 | N#Cc1c(C2CCCNC2)cc(-c2ccccc2O)nc1NCc1ccccc1 (centres unmarked) [Example 4-1, 2-(benzylamino)-6-(2-hydroxyphenyl)-4-(3-piperidinyl)nicotinonitrile hydrochloride]
24 | < 500 | CN1CCCC(c2cc(-c3c(O)cccc3OCC3CC3)nc(N)c2C#N)C1 (centres unmarked) [Example 3-1, 2-amino-6-[2-(cyclopropylmethoxy)-6-hydroxyphenyl]-4-(1-methyl-3-piperidinyl)nicotinonitrile]
25 | < 500 | N#Cc1c(C2CCCNC2)cc(-c2c(O)cccc2OCc2ccccc2)nc1N (centres unmarked) [Example 2-2, 2-amino-6-[2-(benzyloxy)-6-hydroxyphenyl]-4-(3-piperidinyl)nicotinonitrile hydrochloride]
26 | > 10000 | N#Cc1c(C2CCCNC2)cc(-c2ccccc2O)nc1Nc1ccccc1 (centres unmarked) [Example 4-4, hydrochloride]
